Patent US20240051952A1, “HMOX1 INDUCERS” (Mitobridge Inc., priority 2019, published 2024)

What was measured:
VCAM-1 = VCAM-1 gene expression in TNFα-stimulated primary human endothelial cells; format: cell-based; conditions: HPAEC
Text: Example 150. Gene Expression in Primary Human Endothelial Cells
Inflammatory conditions in endothelial cells increase expression of adhesion molecules, such as VCAM-1, ICAM-1 and E-selectin through NF-kB signaling. HMOX1 −/− endothelial cells show increased expression of VCAM-1 in response to TNF stimulation, as compared to HMOX +/+endothelial cells. See Seldon et al., J Immunol Dec. 1, 2007, 179 (11) 7840-7851.
Primary human pulmonary artery endothelial cells (HPAEC) (Lonza #CC-2530) were seeded in 12-well plates (TrueLine #TR5001) at 200 k cells per well and placed at 37° C. in 5% CO2. 18-24 hr post seeding, cells were treated with the compound of Example 17 via media change. 24 hr post treatment with the compound, cells were treated with 10 ng/mL TNFα (Invitrogen #PHC3015 in H2O) alone or with the compound of Example 17. […] 20ng cDNA was mixed with water, iQ™ SYBR® Green Supermix (BioRad #170-8886), and 300 nM primer (IDT #NM_001078) for a total 10ul reaction and loaded into 384-well white qPCR plates and subsequently analyzed using BioRad CFX384. […] To calculate fold change, the ΔCt on a per sample basis was calculated as Ct (Gene of interest)—Ct (Average of reference genes). The ΔΔCt was then calculated as ΔCt (experimental sample)—Average ΔCt (control group). […]

[1] = tested on: Primary human pulmonary artery endothelial cells (HPAEC); assay: Glutathione (GSH) levels in primary human endothelial cells under hemin stress; format: cell-based
Method: Example 149. Glutathione (GSH) Levels in Primary Human Endothelial Cells
Primary human pulmonary artery endothelial cells (HPAEC) (Lonza #CC-2530) cultured in endothelial cell growth medium-2 (EGM2 media, Lonza #CC-3162) were seeded in white 96-well plate (Corning® #3610) at 12.5 k cells per well and placed at 37° C. in 5% CO2. 18-24 hr post seeding, cells were treated with the compound of Example 17 via media change. 24 hr post treatment with the compound, cells were treated using a freshly prepared hemin stock (Sigma-Aldrich #51280 in 0.1N NaOH) alone or with the compound of Example 17. […] Media was aspirated off and GSH-Glo™ Glutathione Assay (Promega #V6911) was run following the manufacturer's protocol. White bottom plate seal (PerkinElmer #6005199) was used during read. Analysis was done using Softmax Pro.

## Cn1c(Nc2nc3ccccc3o2)nc2cc(C(=O)NCCOCCO)ccc21 [Example 17, 2-(benzo[d]oxazol-2-ylamino)-N-(2-(2-hydroxyethoxy)ethyl)-1-methyl-1H-benzo[d]imidazole-5-carboxamide]
VCAM-1; 24 hr pre-treatment, 10 ng/mL TNFα 4 hours
  TNF-α mediated endothelial cell activation (VCAM-1 expression): reduced this TNF-α mediated endothelial cell activation
VCAM-1; after 4 hours of TNFα treatment
  toxicity, visual inspection of cells: no toxicity being noted
[1]; 24 hr pre-incubation, 30 min hemin stress
  GSH levels / protection from hemin mediated oxidative stress: protects these cells from hemin mediated oxidative stress
[1]; after 30 min of hemin stress
  toxicity, visual inspection of cells: no toxicity being noted
